Reference: patent US8592403B2, “Diazepine and diazocane compounds as MC4 agonists” (Pfizer Limited, priority 2008, dated 2013)

Key:
MC4 receptor = MC4 receptor (Homo sapiens, UniProt P32245); experiment: MC4 EC50 functional potency (protocol E of US2005/0176772 / WO 2005/077935); type: cell-based
Procedure: The compounds of formula (I) of the present invention have utility as MCR4 agonists in the treatment of various disease states.
MC5 and MC4 EC50 activity was determined as described by assay protocols D and E, respectively, in US2005/0176772 (pages 28-30).

CYP3A4 = target: T1, CYP3A4 (Homo sapiens, UniProt P08684); experiment: High density DDI 3 μM cocktail screen in human liver microsomes, midazolam probe; type: in vitro ADME; conditions: human, liver microsomes, probe midazolam, read-out: % inhibition 3A4 @ 3 μM
T1 construct: utilizes human liver microsomes together with isoform-specific clinical drug probes; from tissue; host or cells: human liver microsomes
T1 sequence (P08684 whole entry, canonical isoform): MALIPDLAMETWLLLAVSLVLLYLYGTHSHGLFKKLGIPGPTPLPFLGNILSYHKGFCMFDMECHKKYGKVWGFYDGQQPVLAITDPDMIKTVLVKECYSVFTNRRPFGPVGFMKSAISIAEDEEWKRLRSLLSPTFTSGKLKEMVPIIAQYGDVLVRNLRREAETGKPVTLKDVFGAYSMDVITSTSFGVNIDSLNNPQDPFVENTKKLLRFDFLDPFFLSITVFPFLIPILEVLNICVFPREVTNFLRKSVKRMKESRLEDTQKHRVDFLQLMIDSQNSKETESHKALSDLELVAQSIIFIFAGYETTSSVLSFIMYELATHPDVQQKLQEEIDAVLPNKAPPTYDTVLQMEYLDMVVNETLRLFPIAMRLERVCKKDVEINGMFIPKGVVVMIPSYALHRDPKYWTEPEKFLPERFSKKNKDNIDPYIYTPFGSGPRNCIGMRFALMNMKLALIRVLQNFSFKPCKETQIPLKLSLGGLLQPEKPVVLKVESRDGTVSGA
Procedure: High Density Drug-Drug Interactions (DDI) 3 μM Cocktail Screen
A drug interaction is a situation in which a substance affects the activity of another drug, i.e. the effects are increased or decreased, or together they produce a new effect that neither produces on its own. Drug interactions may be the result of various processes but a relatively common one is where one drug affects the pharmacokinetics of another by inhibiting the cytochrome P450 that metabolises it. Because of the importance of these phenomena, assessment of the DDI potential for new chemical entities (NCEs) is considered important early on in the drug discovery process.
The DDI cocktail screen in human liver microsomes (HLM) is run in a fully automated fashion and the aim of the screen is to provide a single-point assessment of the DDI potential of new chemical entity (NCE; tested at […]) against the 4 primary cytochrome P450 enzymes, 1A2, 2D6, 2C9 and 3A4.
The substrate cocktail approach for P450 DDI utilizes human liver microsomes together with isoform-specific clinical drug probes and permits the simultaneous measurement of the inhibition of P450 1A2, 2C9, 2D6 & 3A4 activities in a single incubation. This is run in high throughput with simultaneous detection of metabolites by LC-MS/MS. This method has been thoroughly tested and evaluated using standard compounds.
Appearance of the metabolite of each substrate is measured over time in the presence and absence of the NCE (test compound/inhibitor) at a concentration of 3 μM. The compounds are assessed for their inhibitory potential as a percentage value and interpreted using the following scheme.

[1] = In vitro metabolism rate determination, human liver microsome (HLM) assay; type: in vitro ADME; conditions: human, liver microsomes, read-out: HLM: Clint, app
Text: In Vitro Metabolism Rate Determination (Human Liver Microsome (HLM); Rat Liver Microsome (RLM) Assay)
Many drugs are metabolised by the cytochrome P450 mono-oxygenase system. This enzyme is found in high concentrations in the liver and is bound to the endoplasmic reticulum of the hepatocyte. The enzyme system can be obtained in semi-purified state by the preparation of the hepatic microsomal fractions. Determining a compound's in vitro half-life in such a system provides a useful indicator of metabolic stability.
Methodology for In Vitro Rate Determination Using Hepatic & Supermix Microsomes
The method outlined below is for a total incubation volume of 1.5 ml.
1. The following mixture is prepared in a test tube:
2. Defrost microsomes at room temperature and add sufficient microsomes to give a final concentration of 0.5 nmol cytochrome P450/ml of incubation e.g. for a 1.5 ml incubation, the volume of microsomes to be added is:
3. Add sufficient MilliQ water to give a total incubation volume of 1.425 ml.
6. Add substrate to the incubation. The substrate should be at an initial concentration of 1 μM. The volume of substrate required in the remaining 1.162.5 ml incubation is calculated as follows: […]
8. Pre-incubate the tube containing the incubation mix, also positive control and no cofactor tubes in the thermostatically controlled shaking water bath set at 37° C. for approx 5 min.
9. Add NADP to initiate reaction (75 μl to each 1.162.5 ml incubation mix, 12.5 μl to positive control tube and 5 μl to no substrate tube) and take first time point immediately. The PNA positive control, no cofactor control and no substrate tubes are incubated for the total incubation time.
10. Remove 100 μl aliquots up to 9 different sampling points from 0 to 60 min (usually 0, 3, 5, 10, 15, 20, 30, 45 & 60 min) and terminate reaction. Longer incubation times can be used, but, after 120 min the microsomes deteriorate. The reaction may be terminated by addition of organic solvent, acid or base. At the end of the incubation process the no cofactor and no substrate controls in a similar manner i.e. terminate with the same reagent.
11. Analyse samples (including no cofactor and no substrate control) by a specific assay for the substrate to determine the disappearance kinetics.
Data obtained using the procedure described above can be quantified in terms of the substrates in vitro intrinsic clearance (Clint). Providing that the substrate concentration is below Km, the metabolism should be 1st order giving a log-linear plot of substrate disappearance with time.
The gradient of this line is the first order rate constant (k) for the substrate disappearance and is determined by regression analysis. This rate constant can be converted to the half-life according to the following equation.
Alternatively the rate constant can be converted to an intrinsic clearance (Clint) according to the following equation:— Clint(μl/min/mg)=(k/protein concentration in incubation (mg/ml))*1000

MC4 receptor, sequence (P32245 whole entry): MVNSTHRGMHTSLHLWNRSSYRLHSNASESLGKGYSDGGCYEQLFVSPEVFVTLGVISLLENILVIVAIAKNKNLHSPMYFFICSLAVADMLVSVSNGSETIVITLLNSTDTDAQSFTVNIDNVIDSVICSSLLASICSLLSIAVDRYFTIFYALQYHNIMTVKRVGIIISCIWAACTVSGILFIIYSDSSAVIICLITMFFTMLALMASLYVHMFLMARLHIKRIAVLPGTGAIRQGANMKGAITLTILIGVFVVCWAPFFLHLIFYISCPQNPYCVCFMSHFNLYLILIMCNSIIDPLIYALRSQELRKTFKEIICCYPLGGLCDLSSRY

Row | SMILES | EC50 (MC4 receptor) [nM] | inhibition at 3 µM (CYP3A4) [%] | microsomal CLint at 1 μM [1] [µL/min/mg]
1 | CS(=O)(=O)N1CCN(C(=O)[C@@H]2CN(c3ccc(C#N)nn3)C[C@H]2c2ccc(F)cc2F)CCCC1c1ccc(F)cc1 (mixture of isomers) [Example 77] | 54.6 | 56.5 | 43
2 | CCC(=O)N1CCN(C(=O)[C@@H]2CN(C(C)(C)C)C[C@H]2c2ccc(Cl)cn2)CCC[C@H]1c1ccc(Cl)cc1 [Example 19] | 64.8 | 41 | 62.6
3 | CC(C)C(=O)N1CCN(C(=O)[C@@H]2CN(c3ccc(C#N)nn3)C[C@H]2c2ccc(F)cc2F)CCC[C@H]1c1ccc(Cl)cc1 [Example 22] | 5.25 | 59.2 | –
4 | COc1ccc([C@@H]2CN(c3ccc(C#N)nn3)C[C@H]2C(=O)N2CCC[C@@H](c3ccc(Cl)cc3)N(C(=O)C3CC3)CC2)c(F)c1 [Example 23] | 4.31 | 56.2 | 29.1
5 | COc1ccc([C@@H]2CN(c3ccc(C#N)nn3)C[C@H]2C(=O)N2CCC[C@@H](c3ccc(Cl)cc3)N(C(=O)C(C)C)CC2)c(F)c1 [Example 24] | 2.27 | 43.4 | 37.3
6 | COc1ccc([C@@H]2CN(c3ccc(C#N)nn3)C[C@H]2C(=O)N2CCC[C@@H](c3ccc(Cl)cc3)N(C(=O)CC(F)(F)F)CC2)c(F)c1 [Example 26] | 8.31 | 20.4 | 30.2
7 | COc1ccc([C@@H]2CN(c3ccc(=O)n(C)n3)C[C@H]2C(=O)N2CCC[C@@H](c3ccc(Cl)cc3)N(C(C)=O)CC2)c(F)c1 [Example 27] | 5.02 | 25.7 | 20.4
8 | CCC(=O)N1CCN(C(=O)[C@@H]2CN(c3ccc(=O)n(C)n3)C[C@H]2c2ccc(OC)cc2F)CCC[C@H]1c1ccc(Cl)cc1 [Example 28] | 3.4 | 40.8 | 21.5
9 | COc1ccc([C@@H]2CN(c3ccc(=O)n(C)n3)C[C@H]2C(=O)N2CCC[C@@H](c3ccc(Cl)cc3)N(C(=O)CC(F)(F)F)CC2)c(F)c1 [Example 30, 6-[(3S,4R)-3-{[5S-(4-chlorophenyl)-4-(3,3,3-trifluoropropanoyl)-1,4-diazocan-1-yl]carbonyl}-4-(2-fluoro-4-methoxyphenyl)pyrrolidin-1-yl]-2-methylpyridazin-3(2H)-one] | 6.01 | 36.8 | 18.2
10 | CC(C)C(=O)N1CCN(C(=O)[C@@H]2CN(c3ccc(=O)n(C)n3)C[C@H]2c2ccc(F)cc2F)CCC[C@H]1c1ccc(Cl)cc1 [Example 33, 6-[(3S,4R)-3-{[5S-(4-chlorophenyl)-4-isobutyryl-1,4-diazocan-1-yl]carbonyl}-4-(2,4-difluorophenyl)pyrrolidin-1-yl]-2-methylpyridazin-3(2H)-one] | 3.5 | 45.2 | 17
11 | Cn1nc(N2C[C@@H](C(=O)N3CCC[C@@H](c4ccc(Cl)cc4)N(C(=O)C4CC4)CC3)[C@H](c3ccc(F)cc3F)C2)ccc1=O [Example 34] | 3.9 | 69.2 | 30.9
12 | CCC(=O)N1CCN(C(=O)[C@@H]2CN(c3ccc(=O)n(C)n3)C[C@H]2c2ccc(F)cc2F)CCC[C@H]1c1ccc(Cl)cc1 [Example 35] | 5.29 | 68.3 | –
13 | CC(=O)N1CCN(C(=O)[C@@H]2CN(c3ccc(=O)n(C)n3)C[C@H]2c2ccc(Cl)cn2)CCC[C@H]1c1ccc(Cl)cc1 [Example 36] | 7.67 | – | –
14 | CCC(=O)N1CCN(C(=O)[C@@H]2CN(c3ccc(=O)n(C)n3)C[C@H]2c2ccc(Cl)cn2)CCC[C@H]1c1ccc(Cl)cc1 [Example 38] | 6.9 | – | –
15 | N#Cc1ccc(N2C[C@@H](C(=O)N3CCC[C@@H](c4ccc(Cl)cc4)N(C(=O)CC(F)(F)F)CC3)[C@H](c3ccc(F)cc3F)C2)nn1 [Example 58] | 22.1 | 46.5 | –
16 | COC(=O)N1CCN(C(=O)C2CN(c3ccc(C#N)nn3)C[C@H]2c2ccc(OC)cc2F)CCC[C@@H]1c1ccc(Cl)cc1 (stereo partly shown) [Example 88] | – | 21.5 | 40.1
17 | COC(=O)N1CCN(C(=O)C2CN(c3ccc(C#N)nn3)CC2c2ccc(OC)cc2F)CCC[C@H]1c1ccc(Cl)cc1 (stereo partly shown) [Example 89] | – | 28.5 | 42.9

The next lines start with the values.

Row | EC50 (MC4 receptor) [nM] | inhibition at 3 µM (CYP3A4) [%] | microsomal CLint at 1 μM [1] [µL/min/mg] | SMILES
18 | 152 | 24.2 | 34 | CC(=O)N1CCN(C(=O)[C@@H]2CN(C(C)(C)C)C[C@H]2c2ccc(F)cc2F)CCC1c1ccc(F)cc1F (mixture of isomers) [Example 18]
19 | 397 | – | 52 | CC(C)(C)N1C[C@@H](C(=O)N2CCC(c3ccc(F)cc3F)N(S(C)(=O)=O)CC2)[C@H](c2ccc(F)cc2F)C1 (mixture of isomers) [Example 43]
20 | 44.8 | – | 32.8 | COC(=O)N1CCN(C(=O)[C@@H]2CN(C(C)(C)C)C[C@H]2c2ccc(F)cc2F)CCC1c1ccc(F)cc1F (mixture of isomers) [Example 54]
21 | 206 | – | 27.9 | CC(=O)N1CCN(C(=O)[C@@H]2CN(C(C)(C)C)C[C@H]2c2ccc(F)cc2F)CCC1c1ccc(Cl)cc1 (mixture of isomers) [Example 84]
22 | 404 | 30.5 | 48.4 | CC(C)(C)N1C[C@@H](C(=O)N2CCC(c3ccc(Cl)cc3)N(S(C)(=O)=O)CC2)[C@H](c2ccc(F)cc2F)C1 (mixture of isomers) [Example 85]
23 | 97.2 | 20.3 | 29.6 | COC(=O)N1CCN(C(=O)[C@@H]2CN(C(C)(C)C)C[C@H]2c2ccc(F)cc2F)CCC1c1ccc(Cl)cc1 (mixture of isomers) [Example 86]
24 | – | 35.1 | – | CC(=O)N1CCN(C(=O)C2CN(c3ccc(C#N)nn3)C[C@H]2c2ccc(F)cc2F)CCC[C@H]1c1ccc(Cl)cc1 (stereo partly shown) [Example 21]
25 | 9.42 | – | – | CC(=O)N1CCN(C(=O)[C@@H]2CN(c3ccc(C#N)nn3)C[C@H]2c2ccc(F)cc2F)CCC[C@H]1c1ccc(Cl)cc1 [Example 21]
26 | 6.63 | – | 14.8 | CC(=O)N1CCN(C(=O)[C@@H]2CN(c3ccc(=O)n(C)n3)C[C@H]2c2ccc(F)cc2F)CCC[C@H]1c1ccc(Cl)cc1 [Example 32]
27 | 35.2 | 0 | – | CCOC(=O)N1CCN(C(=O)[C@@H]2CN(C(C)(C)C)C[C@H]2c2ccc(F)cc2F)CCC[C@H]1c1ccc(Cl)cc1 [Example 52]
28 | 247 | – | – | CC(C)(C)N1C[C@@H](C(=O)N2CCC[C@@H](c3ccc(Cl)cc3)N(C(=O)C3N=CC=N3)CC2)[C@H](c2ccc(F)cc2F)C1 [Example 64]
